Measurements reported in paper PMC12649549, “Sequence Permutation Generated Lysine and Tryptophan-Rich Antimicrobial Peptides with Enhanced Therapeutic Index” (Antibiotics, 2025).
Where two headings read alike, the source gives them in different places.

Tests used:
[1] = system: Escherichia coli (ATCC 25922)
Procedure, shortened: (§1)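 MICs came from CLSI broth microdilution, with 5 × 10^5 CFU/mL bacteria exposed to peptide at final 0.78–50 µg/mL. Media were MH broth or LYM broth (pH 7.4), the latter also adjusted for salt (NaCl 50–300 mM, MgCl2 0.5–2.5 mM) or acidity (pH 4.5–6.5); triplicate independent experiments.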

[2] = system: A. baumannii 14B00100 (Acinetobacter sp., BCRC number 14B0100)
Procedure, shortened: as §1

[3] = system: A. baumannii 14B0091 (Acinetobacter sp., BCRC number 14B0091)
Procedure, shortened: as §1

[4] = system: S. aureus ATCC 25923
Procedure, shortened: as §1

[5] = system: A. baumannii 14B0097 (Acinetobacter sp., BCRC number 14B0097)
Procedure, shortened: as §1

[6] = system: S. aureus ATCC 6538
Procedure, shortened: as §1

[7] = system: Gram-positive bacteria; experiment: Geometric mean MIC and therapeutic index, Gram-positive bacteria; assay type: cell-based; conditions: Gram-positive bacteria; for GM G+ (geometric mean of the MIC values): MH broth, MIC >50 µg/mL counted as 100 µg/mL; for Therapeutic Index (TI) G+: HC10/GM
Procedure, shortened: (§2)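 Therapeutic index taken as the ratio of HC10 on human erythrocytes to geometric mean MIC. MICs from CLSI broth microdilution with peptides at 50 down to 0.78 µg/mL, inoculum 5 × 10^5 CFU/mL, in MH or modified LYM broth; triplicate independent experiments.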

[8] = system: Gram-negative bacteria; experiment: Geometric mean MIC and therapeutic index, Gram-negative bacteria; assay type: cell-based; conditions: Gram-negative bacteria; for GM G− (geometric mean of the MIC values): MH broth, MIC >50 µg/mL counted as 100 µg/mL; for Therapeutic Index (TI) G−: HC10/GM
Procedure, shortened: as §2

[9] = LYM broth, 0 mM NaCl, 16 h, 37 °C
[10] = LYM broth, 50 mM NaCl, 16 h, 37 °C
[11] = LYM broth, 100 mM NaCl, 16 h, 37 °C
[12] = LYM broth, 200 mM (NaCl), 16 h, 37 °C
[13] = LYM broth, 300 mM (NaCl), 16 h, 37 °C
[14] = MH broth, 5 × 10^5 CFU/mL, 16 h, 37 °C, repeated three times

Ac-RKWLKWLAKKKKW-NH2 [Peptide W5K03]
50 µg/mL: MIC [1, 11] | MIC [1, 14] | MIC [4, 14]
3.13 µg/mL: MIC ([1]; LYM broth, pH 6.5) | MIC ([2]; LYM broth, 0.5 mM MgCl2) | MIC ([2]; LYM broth, 1.5 mM MgCl2) | MIC ([2]; LYM broth, 2.5 mM MgCl2) | MIC [2, 10] | MIC [2, 11] | MIC ([3]; LYM broth, 1.5 mM MgCl2) | MIC ([3]; LYM broth, 2.5 mM MgCl2) | MIC [3, 10] | MIC [3, 11] | MIC ([3]; LYM broth, pH 4.5) | MIC ([3]; LYM broth, pH 5.5) | MIC ([4]; LYM broth, pH 5.5) | MIC ([4]; LYM broth, pH 6.5) | MIC ([5]; LYM broth, 0.5 mM MgCl2) | MIC ([5]; LYM broth, 1.5 mM MgCl2) | MIC ([5]; LYM broth, 2.5 mM MgCl2) | MIC [5, 10] | MIC [5, 11] | MIC ([5]; LYM broth, pH 4.5) | MIC ([5]; LYM broth, pH 5.5) | MIC ([5]; LYM broth, pH 6.5) | MIC ([6]; LYM broth, 0.5 mM MgCl2) | MIC ([6]; LYM broth, 1.5 mM MgCl2) | MIC [6, 10] | MIC ([6]; LYM broth, pH 5.5) | MIC ([6]; LYM broth, pH 6.5)
16.5 µg/mL: GM G− (geometric mean of the MIC values) [8]
12.5 µg/mL: MIC ([1]; LYM broth, 0.5 mM MgCl2) | MIC [2, 13] | MIC [2, 14] | MIC ([4]; LYM broth, 1.5 mM MgCl2) | MIC ([4]; LYM broth, 2.5 mM MgCl2) | MIC [4, 10] | MIC [6, 12]
66.0 µg/mL: GM G+ (geometric mean of the MIC values) [7]
>50 µg/mL: MIC [1, 12] | MIC [1, 13] | MIC [4, 12] | MIC [4, 13]
1.56 µg/mL: MIC [2, 9] | MIC ([2]; LYM broth, pH 4.5) | MIC ([2]; LYM broth, pH 5.5) | MIC ([2]; LYM broth, pH 6.5) | MIC [3, 9] | MIC ([3]; LYM broth, 0.5 mM MgCl2) | MIC ([3]; LYM broth, pH 6.5) | MIC [5, 9] | MIC [6, 9]
6.6: Therapeutic Index (TI) G− [8]
6.25 µg/mL: MIC [1, 9] | MIC ([1]; LYM broth, pH 4.5) | MIC ([1]; LYM broth, pH 5.5) | MIC [2, 12] | MIC [3, 12] | MIC [3, 14] | MIC [4, 9] | MIC ([4]; LYM broth, 0.5 mM MgCl2) | MIC ([4]; LYM broth, pH 4.5) | MIC [5, 12] | MIC [5, 14] | MIC ([6]; LYM broth, 2.5 mM MgCl2) | MIC [6, 11] | MIC ([6]; LYM broth, pH 4.5)
25 µg/mL: MIC ([1]; LYM broth, 1.5 mM MgCl2) | MIC ([1]; LYM broth, 2.5 mM MgCl2) | MIC [1, 10] | MIC [3, 13] | MIC [4, 11] | MIC [5, 13] | MIC [6, 13] | MIC [6, 14]
1.6: Therapeutic Index (TI) G+ [7]

Ac-WLAKKKKWRKWLK-NH2 [Peptide W5K08]
2.2: Therapeutic Index (TI) G− [8]
1.4: Therapeutic Index (TI) G+ [7]
1.56 µg/mL: MIC [4, 9] | MIC ([4]; LYM broth, pH 6.5)
>50 µg/mL: MIC [1, 13] | MIC [2, 12] | MIC [2, 13] | MIC [2, 14] | MIC [3, 12] | MIC [3, 13] | MIC [3, 14] | MIC [4, 13] | MIC [5, 13] | MIC [6, 13] | MIC [6, 14]
50.0 µg/mL: GM G− (geometric mean of the MIC values) [8]
12.5 µg/mL: MIC [1, 10] | MIC [1, 11] | MIC [4, 11] | MIC [5, 11] | MIC [6, 9] | MIC ([6]; LYM broth, pH 4.5)
6.25 µg/mL: MIC ([1]; LYM broth, 0.5 mM MgCl2) | MIC ([1]; LYM broth, 1.5 mM MgCl2) | MIC ([1]; LYM broth, 2.5 mM MgCl2) | MIC ([2]; LYM broth, 2.5 mM MgCl2) | MIC [2, 10] | MIC ([3]; LYM broth, 2.5 mM MgCl2) | MIC [3, 10] | MIC ([3]; LYM broth, pH 4.5) | MIC ([4]; LYM broth, 1.5 mM MgCl2) | MIC ([4]; LYM broth, 2.5 mM MgCl2) | MIC ([5]; LYM broth, 2.5 mM MgCl2) | MIC [5, 10] | MIC ([5]; LYM broth, pH 4.5) | MIC ([6]; LYM broth, 1.5 mM MgCl2) | MIC ([6]; LYM broth, 2.5 mM MgCl2) | MIC ([6]; LYM broth, pH 5.5) | MIC ([6]; LYM broth, pH 6.5)
3.13 µg/mL: MIC [1, 9] | MIC ([1]; LYM broth, pH 4.5) | MIC ([1]; LYM broth, pH 5.5) | MIC ([1]; LYM broth, pH 6.5) | MIC [2, 9] | MIC ([2]; LYM broth, 0.5 mM MgCl2) | MIC ([2]; LYM broth, 1.5 mM MgCl2) | MIC ([2]; LYM broth, pH 4.5) | MIC ([2]; LYM broth, pH 5.5) | MIC ([2]; LYM broth, pH 6.5) | MIC [3, 9] | MIC ([3]; LYM broth, 0.5 mM MgCl2) | MIC ([3]; LYM broth, 1.5 mM MgCl2) | MIC ([3]; LYM broth, pH 5.5) | MIC ([3]; LYM broth, pH 6.5) | MIC ([4]; LYM broth, 0.5 mM MgCl2) | MIC [4, 10] | MIC ([4]; LYM broth, pH 4.5) | MIC ([4]; LYM broth, pH 5.5) | MIC [5, 9] | MIC ([5]; LYM broth, 0.5 mM MgCl2) | MIC ([5]; LYM broth, 1.5 mM MgCl2) | MIC ([5]; LYM broth, pH 5.5) | MIC ([5]; LYM broth, pH 6.5) | MIC ([6]; LYM broth, 0.5 mM MgCl2)
75.8 µg/mL: GM G+ (geometric mean of the MIC values) [7]
25 µg/mL: MIC [2, 11] | MIC [3, 11] | MIC [4, 14] | MIC [5, 14] | MIC [6, 10]
50 µg/mL: MIC [1, 12] | MIC [1, 14] | MIC [4, 12] | MIC [5, 12] | MIC [6, 11] | MIC [6, 12]

Ac-WLKWLAKKKKWRK-NH2 [Peptide W5K05]
33.0 µg/mL: GM G+ (geometric mean of the MIC values) [7]
6.25 µg/mL: MIC ([1]; LYM broth, 1.5 mM MgCl2) | MIC ([1]; LYM broth, 2.5 mM MgCl2) | MIC [2, 12] | MIC [3, 12] | MIC [4, 11] | MIC [5, 12] | MIC [5, 14] | MIC [6, 11]
1.56 µg/mL: MIC [1, 9] | MIC ([1]; LYM broth, pH 4.5) | MIC ([1]; LYM broth, pH 5.5) | MIC ([1]; LYM broth, pH 6.5) | MIC ([2]; LYM broth, 0.5 mM MgCl2) | MIC ([2]; LYM broth, 1.5 mM MgCl2) | MIC ([2]; LYM broth, 2.5 mM MgCl2) | MIC [2, 10] | MIC ([2]; LYM broth, pH 4.5) | MIC ([2]; LYM broth, pH 5.5) | MIC ([2]; LYM broth, pH 6.5) | MIC [3, 9] | MIC ([3]; LYM broth, 0.5 mM MgCl2) | MIC ([3]; LYM broth, 1.5 mM MgCl2) | MIC ([3]; LYM broth, 2.5 mM MgCl2) | MIC [3, 10] | MIC ([3]; LYM broth, pH 5.5) | MIC ([3]; LYM broth, pH 6.5) | MIC [4, 9] | MIC ([4]; LYM broth, 0.5 mM MgCl2) | MIC ([4]; LYM broth, pH 4.5) | MIC ([4]; LYM broth, pH 5.5) | MIC ([4]; LYM broth, pH 6.5) | MIC [5, 9] | MIC ([5]; LYM broth, 0.5 mM MgCl2) | MIC ([5]; LYM broth, 1.5 mM MgCl2) | MIC ([5]; LYM broth, 2.5 mM MgCl2) | MIC ([5]; LYM broth, pH 5.5) | MIC ([5]; LYM broth, pH 6.5) | MIC ([6]; LYM broth, 0.5 mM MgCl2) | MIC ([6]; LYM broth, 1.5 mM MgCl2) | MIC ([6]; LYM broth, pH 5.5) | MIC ([6]; LYM broth, pH 6.5)
0.78 µg/mL: MIC [2, 9]
50 µg/mL: MIC [1, 12] | MIC [4, 12] | MIC [4, 13]
8.7: Therapeutic Index (TI) G− [8]
3.13 µg/mL: MIC ([1]; LYM broth, 0.5 mM MgCl2) | MIC [1, 10] | MIC [2, 11] | MIC [3, 11] | MIC ([3]; LYM broth, pH 4.5) | MIC ([4]; LYM broth, 1.5 mM MgCl2) | MIC ([4]; LYM broth, 2.5 mM MgCl2) | MIC [4, 10] | MIC [5, 10] | MIC [5, 11] | MIC ([5]; LYM broth, pH 4.5) | MIC [6, 9] | MIC ([6]; LYM broth, 2.5 mM MgCl2) | MIC [6, 10] | MIC ([6]; LYM broth, pH 4.5)
3.3: Therapeutic Index (TI) G+ [7]
25 µg/mL: MIC [3, 13] | MIC [4, 14] | MIC [5, 13] | MIC [6, 13]
12.5 µg/mL: MIC [1, 11] | MIC [1, 14] | MIC [2, 13] | MIC [2, 14] | MIC [3, 14] | MIC [6, 12] | MIC [6, 14] | GM G− (geometric mean of the MIC values) [8]
>50 µg/mL: MIC [1, 13]
